This is an account of results in patent US20080267862A1, “METHOD OF TREATING CANCER” (priority 2007, published 2008).

In test [1] the test system is recurrence lymph node masses. Kind of test: clinical response of recurrent lymph node masses in a patient followed by palliative chemotherapy. In kind it is in vivo, human. To be noted: one patient; LMH 4 g/day I.V. for 4 days, then 2 cycles of palliative chemotherapy with Cisplatin and 5 FU. The text has this:
[…] They underwent Radical surgery in the form of total excision of primary tumors and bilateral Supra-omohyoid Neck dissection. Adjuvant External Beam Radiotherapy (EBRT) was then given 66 Gy/33 Fr 6½ weeks and the patient went into complete remission and was disease free for >9 months.
Subsequently, the patient had multiple nodal recurrences presenting with palpable masses.
(§1) Recurrences were confirmed with biopsy and HP examination. Subsequently, the patient was given 2 cycles of Palliative Chemotherapy, following Injection LMH (Lysine Monohydrochloride) for 4 days (4 g/day I.V. in divided doses), with Cisplatin and 5 FU.

Test [2] deals with squamous cell carcinomatous tumor. Put plainly: histopathology (HPE) of neo-angiogenesis 96 hrs after Injection LMH in a patient. Format: in vivo, human. To be noted: LMH 4 g/day I.V. for 4 days, HPE after 96 hrs.
Source text: as §1
HPE was done 96 hrs after Injection LMH to confirm the neo-angiogenesis (FIGS. 4 & FIGS. 5 & FIGS. 6-9)(Also compare FIGS. 4 to 9 with FIGS. 10-11 for quantitative comparison of angiogenic response in LMH treated squamous cell carcinomatous tumor vs. control tumours).

The nature of test [3]: induction of angiogenesis in-vivo. To be noted: for effectiveness, on their own, in inducing angiogenesis response: each on its own. The text has this: (§2) Lysine induced repair process depends on the ability of the amino acid/derivative(s) to induce rapid and controlled cellular expansion, both in-vitro and in-vivo. The phenomenon is probably based on the ability of the molecule(s) to act as the cell surface concentrator(s) of circulating growth factor(s). The rapid angiogenic property of the molecule(s) is also entirely dependent on the same phenomenon, where angiogenic factors are concentrated, locally, on the endothelial cell surface receptors, mediated by the molecule(s) working, possibly, as molecular bridges.

A short description of the next test: expanding cells in-vivo. The text has this:
The present invention is based on an improvement over the inventor's earlier discovery that lysine, without the presence of any other angiogenic factor(s)/angiogenic growth factor(s)/vasculogenic/granulation tissue inducing agent(s), is capable of inducing angiogenesis in ischaemic tissues. The inventor's initial inquiries were directed towards finding new chemical additives in a high-density-culture system, in-vitro, where the objective was to expand viable hybridoma cell mass to the maximum possible at the least possible time (lag phase minimization) and maintaining the viable cell mass in culture for the maximum possible time period, in both fed-batch as well as batch cultures. The final goal was to get highest possible yields of monoclonal antibody (Mab) in the said high-density culture. […] Because of its ability to expand cells in-vitro, the cationic amino acid was taken, along with its d-isomer and short oligomer (m.w. up to or around 500-2500) to in-vivo experimentation and clinical conditions, for controlled regeneration of cells (in clinical conditions), where in-situ regeneration of cells was centrally important along with angio-neogenesis/vasculogensis.

A further test has as its system cells in culture. Put plainly: cellular expansion / rapid cellular growth in culture in-vitro. The conditions noted are these: FIG. 3. In kind it is cell-based.
Source text: as §2

For the next test, the system named is hybridoma cell mass. The conditions noted are these: high-density hybridoma culture, fed-batch and batch; Datta, D et al. 1997; cited from earlier work.

In the case of `Cl.NCCCC[C@H](N)C(=O)O` [LMH, Lysine Monohydrochloride], in test [1], the “outcome of recurrence lymph node masses” value is given as “disappeared achieving a 2nd complete recovery”. Moreover, in test [2] (FIG. 4), the “angiogenic response in glandular structure (histopathology)” value was “extensive angiogenic response”. The “angiogenic response in tumor tissue (histopathology)” value in test [2] (FIGS. 5-9, versus control FIGS. 10-11) is “huge angiogenic and massive blood channel formation”.
On to `NCCCC[C@@H](N)C(=O)O` [d-lysine], for which, in test [3], the “effectiveness, on their own, in inducing angiogenesis response” value was “equally effective”. The “effectiveness in inducing angiogenesis in-vivo, compared to l-lysine” value in test [3] (in-vivo) is reported as “equally effective”. Also, the “effectiveness in expanding cells in-vivo, compared to the l-variety” value in the test “expanding cells in-vivo” is reported as “equally effective”. Besides, in the test on cells in culture (about 10 mcg/ml of added load, in addition to the usual load of l-lysine in the media), the “cellular expansion in culture” value is “mediated cellular expansion in culture”. Besides, the “effectiveness in expanding cells / inducing rapid cellular growth in-vitro, compared to l-lysine” value with cells in culture (in-vitro) is on record as “equally effective”.
Turning to `NCCCC[C@H](N)C(=O)O` [l-lysine], the “effectiveness, on their own, in inducing angiogenesis response” value in test [3] is “equally effective”. For the same compound, in the test with hybridoma cell mass, the “expansion of biomass (cell population) compared to other physico-chemical means” value was “expand the biomass (cell population) at the least possible time”.
